Values after ≈ are worked out from the molar mass of the structure shown. Read-outs that look alike come from different tables or passages of the source.
Columns and labels:
[1] = tested on: E. faecalis ATCC 29212 (Efs 12); test: MIC, broth microdilution, Efs 12; assay type: cell-based; conditions: for MIC: Enterococcus faecalis, read-out: Minimum inhibitory concentration (MIC) Efs 12; for Minimum inhibitory concentration (MIC) Efs 12: Table 1, HT series
Protocol: (§1) The broth microdilution method was utilized to determine MIC values of novel thiazole derivatives against different clinically important Gram-positive bacteria according to the guidelines outlined by the Clinical and Laboratory Standards Institute (CLSI) as reported in our recent papers.^1-5 The starting concentration of compounds for MIC determination was 64 μg/mL serially diluted down the wells and the MIC values were recorded in duplicates in three independent experiments on different days.

[2] = tested on: S. aureus ATCC 700699 (Sa 99); test: MIC, broth microdilution, Sa 99; assay type: cell-based; conditions: for MIC: Staphylococcus aureus, read-out: Minimum inhibitory concentration (MIC) Sa 99; for Minimum inhibitory concentration (MIC) Sa 99: Table 1, HT series
Protocol: as §1

[3] = tested on: S. aureus ATCC 25923 (Sa 23); test: MIC, broth microdilution, Sa 23; assay type: cell-based; conditions: for MIC: Staphylococcus aureus, read-out: Minimum inhibitory concentration (MIC) Sa 23; for Minimum inhibitory concentration (MIC) Sa 23: Table 1, HT series
Protocol: as §1

[4] = tested on: S. epidermidis ATCC 700296 (Se); test: MIC, broth microdilution, Se; assay type: cell-based; conditions: Staphylococcus epidermidis, ATCC700296; Table 2, HTM series; read-out: Minimum inhibitory concentration (MIC) Se
Protocol: as §1

[5] = tested on: S. aureus ATCC 33592 (Sa 92); test: MIC, broth microdilution, Sa 92; assay type: cell-based; conditions: Staphylococcus aureus, ATCC33592; Table 2, HTM series; read-out: Minimum inhibitory concentration (MIC) Sa 92
Protocol: as §1

[6] = tested on: S. aureus ATCC 33591 (Sa 91); test: MIC, broth microdilution, Sa 91; assay type: cell-based; conditions: Staphylococcus aureus, ATCC33591; Table 2, HTM series; read-out: Minimum inhibitory concentration (MIC) Sa 91
Protocol: as §1

[7] = tested on: E. faecalis ATCC 51299 (Efs 99); test: MIC, broth microdilution, Efs 99; assay type: cell-based; conditions: for MIC: Enterococcus faecalis, ATCC51299, read-out: Minimum inhibitory concentration (MIC) Efs 99
Protocol: as §1

[8] = tested on: Sa UAMS-1 MRSA ATCC 49230 (Sa UAMS); test: MIC, broth microdilution, Sa UAMS; assay type: cell-based, S. aureus; conditions: Staphylococcus aureus; Table 2, HTM series; read-out: Minimum inhibitory concentration (MIC) Sa UAMS-1
Protocol: as §1

[9] = tested on: S. aureus ATCC BAA-2312 (Sa 12); test: MIC, broth microdilution, Sa 12; assay type: cell-based; conditions: Staphylococcus aureus, ATCCBAA2312; Table 2, HTM series; read-out: Minimum inhibitory concentration (MIC) Sa 12
Protocol: as §1

[10] = tested on: S. aureus subsp. aureus Rosenbach BAA-1717 (Sa USA 300); test: MIC, broth microdilution, Sa USA 300; assay type: cell-based; conditions: Staphylococcus aureus; Table 2, HTM series; read-out: Minimum inhibitory concentration (MIC) Sa USA 300
Protocol: as §1

[11] = tested on: S. aureus subsp. aureus Rosenbach ATCC 25904 (SA Newman); test: MIC, broth microdilution, SA Newman; assay type: cell-based; conditions: Staphylococcus aureus; Table 2, HTM series; read-out: Minimum inhibitory concentration (MIC) Sa Newman
Protocol: as §1

[12] = tested on: E. faecium ATCC 700221 (Efm 21); test: MIC, broth microdilution, Efm 21; assay type: cell-based; conditions: Enterococcus faecium, read-out: Minimum inhibitory concentration (MIC) Efm 21
Protocol: as §1

[13] = ATCC29212, Table 1, HT series, replicates from different days separated by comma
[14] = replicates from different days separated by comma
[15] = ATCC700699, Table 1, HT series, replicates from different days separated by comma
[16] = ATCC25923, Table 1, HT series, replicates from different days separated by comma
[17] = ATCC700699, Table 2, HTM series
[18] = ATCC700221, Table 2, HTM series

SMILES	MIC [1, 13] [µg/mL]	Minimum inhibitory concentration (MIC) Efs 12 [1, 14]	MIC [2, 15] [µg/mL]	Minimum inhibitory concentration (MIC) Sa 99 [2, 14]	MIC [3, 16] [µg/mL]	Minimum inhibitory concentration (MIC) Sa 23 [3, 14]	MIC [4] [µg/mL]	MIC [5] [µg/mL]	MIC [6] [µg/mL]	MIC ([1]; ATCC29212, Table 2, HTM series) [µg/mL]	MIC ([7]; Table 2, HTM series) [µg/mL]	MIC [8] [µg/mL]	MIC [9] [µg/mL]	MIC [2, 17] [µg/mL]	MIC [10] [µg/mL]	MIC [11] [µg/mL]	MIC ([3]; ATCC25923, Table 2, HTM series) [µg/mL]	MIC [12, 18] [µg/mL]	other results
Oc1ccc(-c2nc(C(F)(F)F)cs2)cc1O [Compound 1, 4-(4-(trifluoromethyl)thiazol-2-yl)benzene-1,2-diol]	> 32	>32, >32 μg/mL	> 32	>32, >32 μg/mL	> 32	>32, >32 μg/mL	–	–	–	–	–	–	–	–	–	–	–	–	–
COc1ccc(-c2csc(-c3ccc(O)c(O)c3)n2)cc1 [Compound 7, 4-(4-(4-methoxyphenyl)thiazol-2-yl)benzene-1,2-diol]	> 32	>32, >32 μg/mL	32 (≈ 107 µM)	32, 32 μg/mL	16 (≈ 53.4 µM)	16, 16 μg/mL	–	–	–	–	–	–	–	–	–	–	–	–	–
Oc1ccc(-c2nc(-c3ccncc3)cs2)cc1O [Compound 11, 4-(4-(pyridin-4-yl)thiazol-2-yl)benzene-1,2-diol]	> 32	>32, >32 μg/mL	> 32	>32, >32 μg/mL	> 32	>32, >32 μg/mL	–	–	–	–	–	–	–	–	–	–	–	–	–
N#Cc1ccc(-c2csc(-c3ccc(O)c(O)c3)n2)cc1 [Compound 12, 4-(2-(3,4-dihydroxyphenyl)thiazol-4-yl)benzonitrile]	> 32	>32, >32 μg/mL	> 32	>32, >32 μg/mL	> 32	>32, >32 μg/mL	–	–	–	–	–	–	–	–	–	–	–	–	–
O=C(O)c1ccc(-c2csc(-c3ccc(O)c(O)c3)n2)cc1 [Compound 13, 4-(2-(3,4-dihydroxyphenyl)thiazol-4-yl)benzoic acid]	> 32	>32, >32 μg/mL	> 32	>32, >32 μg/mL	> 32	>32, >32 μg/mL	–	–	–	–	–	–	–	–	–	–	–	–	–
Oc1ccc(-c2nc(-c3ccc(-c4ccccc4)cc3)cs2)cc1O [Compound 15, 4-(4-([1,1′-biphenyl]-4-yl)thiazol-2-yl)benzene-1,2-diol]	> 32	>32, >32 μg/mL	> 32	>32, >32 μg/mL	> 32	>32, >32 μg/mL	–	–	–	–	–	–	–	–	–	–	–	–	–
NC(=O)c1cc(-c2csc(-c3ccc(O)c(O)c3)n2)ccc1O [Compound 16, 5-(2-(3,4-dihydroxyphenyl)thiazol-4-yl)-2-hydroxybenzamide]	> 32	>32, >32 μg/mL	> 32	>32, >32 μg/mL	> 32	>32, >32 μg/mL	–	–	–	–	–	–	–	–	–	–	–	–	–
O=c1oc2ccccc2cc1-c1csc(-c2ccc(O)c(O)c2)n1 [Compound 17, 3-(2-(3,4-dihydroxyphenyl)thiazol-4-yl)-2H-chromen-2-one]	> 32	>32, >32 μg/mL	16 (≈ 47.4 µM)	32 µg/mL (≈ 94.9 µM)	> 32	>32, >32 μg/mL	–	–	–	–	–	–	–	–	–	–	–	–	–
Oc1ccc(-c2csc(-c3cc(Cl)cc(Cl)c3)n2)cc1 [Compound 43, 4-(2-(3,5-dichlorophenyl)thiazol-4-yl)phenol]	–	–	–	–	–	–	1 (≈ 3.1 µM)	1 (≈ 3.1 µM)	1 (≈ 3.1 µM)	2 (≈ 6.21 µM)	2 (≈ 6.21 µM)	1 (≈ 3.1 µM)	1 (≈ 3.1 µM)	1 (≈ 3.1 µM)	1 (≈ 3.1 µM)	1 (≈ 3.1 µM)	1 (≈ 3.1 µM)	2 (≈ 6.21 µM)	–
Oc1ccc(-c2csc(-c3ccc(C(F)(F)F)cc3)n2)cc1O [Compound 47, 4-{2-[4-(trifluoromethyl)phenyl]-1,3-thiazol-4-yl}benzene-1,2-diol]	–	–	–	–	–	–	8 (≈ 23.7 µM)	8 (≈ 23.7 µM)	8 (≈ 23.7 µM)	16 (≈ 47.4 µM)	8 (≈ 23.7 µM)	8 (≈ 23.7 µM)	4 (≈ 11.9 µM)	8 (≈ 23.7 µM)	8 (≈ 23.7 µM)	8 (≈ 23.7 µM)	4 (≈ 11.9 µM)	8 (≈ 23.7 µM)	–
Oc1ccc(-c2csc(Nc3cc(C(F)(F)F)cc(C(F)(F)F)c3)n2)cc1O [Compound 58, 4-(2-((3,5-bis(trifluoromethyl)phenyl)amino)thiazol-4-yl)benzene-1,2-diol]	–	–	–	–	–	–	4 (≈ 9.52 µM)	4 (≈ 9.52 µM)	4 (≈ 9.52 µM)	4 (≈ 9.52 µM)	4 (≈ 9.52 µM)	4 (≈ 9.52 µM)	4 (≈ 9.52 µM)	4 (≈ 9.52 µM)	4 (≈ 9.52 µM)	4 (≈ 9.52 µM)	4 (≈ 9.52 µM)	4 (≈ 9.52 µM)	–
Oc1ccc(-c2csc(Nc3cc(C(F)(F)F)cc(C(F)(F)F)c3)n2)cc1 [Compound 59, 4-(2-((3,5-bis(trifluoromethyl)phenyl)amino)thiazol-4-yl)phenol]	–	–	–	–	–	–	1 (≈ 2.47 µM)	1 (≈ 2.47 µM)	1 (≈ 2.47 µM)	1 (≈ 2.47 µM)	1 (≈ 2.47 µM)	2 (≈ 4.95 µM)	1 (≈ 2.47 µM)	1 (≈ 2.47 µM)	1 (≈ 2.47 µM)	1 (≈ 2.47 µM)	1 (≈ 2.47 µM)	1 (≈ 2.47 µM)	–
Oc1ccc(-c2csc(-c3ccc(Cl)c(Cl)c3)n2)cc1 [Compound 65, 4-(2-(3,4-dichlorophenyl)thiazol-4-yl)phenol]	–	–	–	–	–	–	1 (≈ 3.1 µM)	1 (≈ 3.1 µM)	1 (≈ 3.1 µM)	2 (≈ 6.21 µM)	2 (≈ 6.21 µM)	2 (≈ 6.21 µM)	1 (≈ 3.1 µM)	1 (≈ 3.1 µM)	1 (≈ 3.1 µM)	2 (≈ 6.21 µM)	1 (≈ 3.1 µM)	2 (≈ 6.21 µM)	–
Cc1ccc(Nc2nc(-c3ccc(O)cc3)cs2)cc1Cl [Compound 67, 4-(2-((3-chloro-4-methylphenyl)amino)thiazol-4-yl)phenol]	–	–	–	–	–	–	4 (≈ 12.6 µM)	4 (≈ 12.6 µM)	8 (≈ 25.3 µM)	8 (≈ 25.3 µM)	8 (≈ 25.3 µM)	4 (≈ 12.6 µM)	4 (≈ 12.6 µM)	4 (≈ 12.6 µM)	4 (≈ 12.6 µM)	4 (≈ 12.6 µM)	4 (≈ 12.6 µM)	4 (≈ 12.6 µM)	–
Oc1ccc(-c2csc(Nc3cc(Cl)c(Cl)cc3Cl)n2)cc1 [Compound 69, 4-(2-((2,4,5-trichlorophenyl)amino)thiazol-4-yl)phenol]	–	–	–	–	–	–	8 (≈ 21.5 µM)	1 (≈ 2.69 µM)	1 (≈ 2.69 µM)	4 (≈ 10.8 µM)	4 (≈ 10.8 µM)	4 (≈ 10.8 µM)	1 (≈ 2.69 µM)	1 (≈ 2.69 µM)	4 (≈ 10.8 µM)	4 (≈ 10.8 µM)	1 (≈ 2.69 µM)	4 (≈ 10.8 µM)	–
Oc1ccc(-c2csc(Nc3cc(Cl)ccc3Cl)n2)cc1 [Compound 73, 4-(2-((2,5-dichlorophenyl)amino)thiazol-4-yl)phenol]	–	–	–	–	–	–	4 (≈ 11.9 µM)	4 (≈ 11.9 µM)	4 (≈ 11.9 µM)	4 (≈ 11.9 µM)	8 (≈ 23.7 µM)	4 (≈ 11.9 µM)	4 (≈ 11.9 µM)	4 (≈ 11.9 µM)	4 (≈ 11.9 µM)	4 (≈ 11.9 µM)	4 (≈ 11.9 µM)	8 (≈ 23.7 µM)	–
CCCCCCCCCC(=O)N[C@@H](Cc1c[nH]c2ccccc12)C(=O)N[C@H](CC(N)=O)C(=O)N[C@@H](CC(=O)O)C(=O)N[C@@H]1C(=O)NCC(=O)N[C@@H](CCCN)C(=O)N[C@@H](CC(=O)O)C(=O)N[C@H](C)C(=O)N[C@@H](CC(=O)O)C(=O)NCC(=O)N[C@H](CO)C(=O)N[C@@H]([C@H](C)CC(=O)O)C(=O)N[C@@H](CC(=O)c2ccccc2N)C(=O)O[C@@H]1C [Dapt., Daptomycin, reference compound]	–	–	–	–	–	–	–	–	–	–	–	–	–	–	–	–	–	1 (≈ 0.617 µM)	MIC ([7]; Table 1, HT series): 1 µg/mL (≈ 0.617 µM); Minimum inhibitory concentration (MIC) Efs 99 ([7]; Table 2, HTM series): 1 µg/mL (≈ 0.617 µM); MIC ([12]; ATCC700221, Table 1, HT series): 4 µg/mL (≈ 2.47 µM)

From US20250270199A1, “THIAZOLE DERIVATIVES AND METHODS OF USING THE SAME” (Arkansas State University - Jonesboro, priority 2022, published 2025)
